Legend:
Design in all cases: species or system human
[1] = tested on: maternal serum samples (antibodies); test: ELISA peptide-binding of maternal sera, expanded peptide collection (Example 5); conditions: for Binding / reactivity of maternal sera to peptide (in words): Example 5
Excerpt: The gp120 and gp41 peptides used in this experiment include peptides 60 [SEQ ID NO:9], 93 [SEQ ID NO:10], 94 [SEQ ID NO:1], 95 [SEQ ID NO:11], 96 [SEQ ID NO:12], 97 [SEQ ID NO:13], 59 [SEQ ID NO:14], 106 [SEQ ID NO:15], 107 [SEQ ID NO:[…]], 1029/33 [SEQ ID NO:2], p18p [SEQ ID NO:17], B138 [SEQ ID NO:3], 466 [SEQ ID NO:4], 497 [SEQ ID NO:18], 117 [SEQ ID NO:19], F560 [SEQ ID NO:20], 35 [SEQ ID NO:5], 120 [SEQ ID NO:21], 121 [SEQ ID NO:22], 123 [SEQ ID NO:23], 36 [SEQ ID NO:24], 40 [SEQ ID NO:25], 41 [SEQ ID NO:26], 649 [SEQ ID NO:6], 53 [SEQ ID NO:7], 55 [SEQ ID NO:27], 128 [SEQ ID NO:28], 129 [SEQ ID NO:29], 132 [SEQ ID NO:30], 57 [SEQ ID NO:8], and 1103/55 [SEQ ID NO:31] from Table 2. These peptides were synthesized based on the same HIV IIIB isolate as were the peptides of Table 2. Alternative designations for these peptides are provided in brackets.
Each of the peptides was at least 85% pure, making them suitable for ELISA analyses. The average length of these peptides was 18 amino acid residues, which allows for a certain degree of local flexibility and conformational folding, thus facilitating detection of antibody species with reactivities to shaped structures.
The maternal serum samples were obtained from the Mothers/Infants Cohort Study described in Example 1. For the ELISA peptide-binding analyses performed essentially as described in Example 3, maternal serum samples were diluted to 1:50 or 1:500 with blocking buffer (1% bovine serum albumin in phosphate-buffered saline containing 0.05% Tween 20). Binding was measured using 10 μg/mL peptide per well and was considered positive if the experimental/control OD450nm ratio was ≥2. Normal (HIV seronegative) human sera were used as controls.

[2] = tested on: maternal sera (antibodies); test: ELISA peptide-binding of maternal sera (Example 6); conditions: for Number of Non-Transmitters which bound to peptide / Percent of Non-Transmitters which bound to peptide: N = 12; for Number of Transmitters which bound to peptide / Percent of Transmitters which bound to peptide: N = 4
Summary of the method: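 Third-trimester maternal sera, from HIV-1 transmitting and non-transmitting mothers, were tested by ELISA against ~16-residue peptides spanning HIV-1 external and transmembrane glycoproteins. Each serum was run with at least 40 peptides, and values are the percentage of sera binding each peptide.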

[3] = tested on: maternal HIV+ sera (antibodies); test: RIA / ELISA binding of maternal HIV+ sera to gp120 and gp41 peptides (Example 3); conditions: for Percent of the maternal serum samples that bound to the peptide: all 20 samples; for Correlation of peptide recognition with lack of vertical transmission: in words
Summary of the method: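 Peptides were coated at 10 μg/ml in carbonate buffer pH 9.6 and blocked with 1% BSA. Sera at 1:50 and 1:500 were incubated overnight at 4°C and detected with ¹²⁵I anti-human IgG (RIA) or HRP/TMB at OD450 (ELISA). Specific binding was taken as peptide minus no-peptide wells, scored as a ratio to normal human serum.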

[4] = Serum No. 1, Non-Transmission Group
[5] = Serum No. 2, Non-Transmission Group
[6] = Serum No. 3, Non-Transmission Group
[7] = Serum No. 4, Transmission Group
[8] = Serum No. 5, Transmission Group
[9] = Serum No. 6, Non-Transmission Group
[10] = Serum No. 7, Non-Transmission Group
[11] = Serum No. 8, Non-Transmission Group
[12] = Serum No. 9, Non-Transmission Group
[13] = Serum No. 10, Transmission Group
[14] = Serum No. 11, Non-Transmission Group
[15] = Serum No. 12, Non-Transmission Group
[16] = Serum No. 13, Transmission Group
[17] = Serum No. 14, Transmission Group
[18] = Serum No. 15, Transmission Group
[19] = Serum No. 16, Non-Transmission Group
[20] = Serum No. 17, Non-Transmission Group
[21] = Serum No. 18, Non-Transmission Group
[22] = Serum No. 19, Transmission Group
[23] = Serum No. 20, Non-Transmission Group

Substance	Binding / reactivity of maternal sera to peptide (in words) [1]	Number of Non-Transmitters which bound to peptide [2]	Percent of Non-Transmitters which bound to peptide [2]	Number of Transmitters which bound to peptide [2]	Percent of Transmitters which bound to peptide [2]	Binding of maternal HIV+ serum to peptide (sera/NHS ratio) [3, 4]	Binding of maternal HIV+ serum to peptide (sera/NHS ratio) [3, 5]	Binding of maternal HIV+ serum to peptide (sera/NHS ratio) [3, 6]	Binding of maternal HIV+ serum to peptide (sera/NHS ratio) [3, 7]	Binding of maternal HIV+ serum to peptide (sera/NHS ratio) [3, 8]	Binding of maternal HIV+ serum to peptide (sera/NHS ratio) [3, 9]	Binding of maternal HIV+ serum to peptide (sera/NHS ratio) [3, 10]	Binding of maternal HIV+ serum to peptide (sera/NHS ratio) [3, 11]	Binding of maternal HIV+ serum to peptide (sera/NHS ratio) [3, 12]	Binding of maternal HIV+ serum to peptide (sera/NHS ratio) [3, 13]	Binding of maternal HIV+ serum to peptide (sera/NHS ratio) [3, 14]	Binding of maternal HIV+ serum to peptide (sera/NHS ratio) [3, 15]	Binding of maternal HIV+ serum to peptide (sera/NHS ratio) [3, 16]	Binding of maternal HIV+ serum to peptide (sera/NHS ratio) [3, 17]	Binding of maternal HIV+ serum to peptide (sera/NHS ratio) [3, 18]	further results
56: gp41 peptide, amino acids 747-767, HIV strain IIIB, SEQ ID NO: 156 (RLVNGSLALIWDDLRSLCLFS) [Peptide 56]	recognized by the transmission group	0	0%	0	0%	–	–	–	–	–	–	–	–	–	–	–	–	–	–	–	Percent of both groups that bound to the peptide ([1]; transmission and non-transmission groups): more than 50%
58: gp41 peptide, amino acids 794-817, HIV strain IIIB, SEQ ID NO: 173 (KYWWNLLQYWSQELKNSAVSLLNA) [Peptide 58]	recognized by the transmission group	3	25%	0	0%	–	–	–	–	–	–	–	–	–	–	–	–	–	–	–	–
CQNQQEKNEQELLEL [Peptide 649]	recognized by the transmission group	7	43.8%	2	50%	++ (which value is greater than 3)	+ (which value is between 2 to 3)	+ (which value is between 2 to 3)	+ (which value is between 2 to 3)	- (specific OD450 or cpm of sera sample binding to peptide divided by the specific OD450 or cpm of NHS sample binding to peptide, which value is less than 2)	++ (which value is greater than 3)	++ (which value is greater than 3)	++ (which value is greater than 3)	- (specific OD450 or cpm of sera sample binding to peptide divided by the specific OD450 or cpm of NHS sample binding to peptide, which value is less than 2)	- (specific OD450 or cpm of sera sample binding to peptide divided by the specific OD450 or cpm of NHS sample binding to peptide, which value is less than 2)	++ (which value is greater than 3)	++ (which value is greater than 3)	- (specific OD450 or cpm of sera sample binding to peptide divided by the specific OD450 or cpm of NHS sample binding to peptide, which value is less than 2)	+ (which value is between 2 to 3)	+ (which value is between 2 to 3)	Difference in binding of samples from transmission vs non-transmission group (Spearman rank-order correlation) ([3]; Example 3): significant statistical difference; Binding of maternal HIV+ serum to peptide (sera/NHS ratio) [3, 19]: - (specific OD450 or cpm of sera sample binding to peptide divided by the specific OD450 or cpm of NHS sample binding to peptide, which value is less than 2); Binding of maternal HIV+ serum to peptide (sera/NHS ratio) [3, 20]: + (which value is between 2 to 3); Binding of maternal HIV+ serum to peptide (sera/NHS ratio) [3, 21]: + (which value is between 2 to 3); Binding of maternal HIV+ serum to peptide (sera/NHS ratio) [3, 22]: - (specific OD450 or cpm of sera sample binding to peptide divided by the specific OD450 or cpm of NHS sample binding to peptide, which value is less than 2); Binding of maternal HIV+ serum to peptide (sera/NHS ratio) [3, 23]: - (specific OD450 or cpm of sera sample binding to peptide divided by the specific OD450 or cpm of NHS sample binding to peptide, which value is less than 2); Percent of the maternal serum samples that bound to the peptide [3]: 70%; Correlation of peptide recognition with lack of vertical transmission [3]: correlated with non-transmission status; Correlation of peptide recognition with lack of vertical transmission ([3]; listed as SEQ ID NO: 6): clearly correlated to non-transmission status
NATAIAVAEGTDRVIEVVQGAYRAI [1103/55]	recognized by the transmission group	0	0%	0	0%	- (specific OD450 or cpm of sera sample binding to peptide divided by the specific OD450 or cpm of NHS sample binding to peptide, which value is less than 2)	++ (which value is greater than 3)	- (specific OD450 or cpm of sera sample binding to peptide divided by the specific OD450 or cpm of NHS sample binding to peptide, which value is less than 2)	++ (which value is greater than 3)	- (specific OD450 or cpm of sera sample binding to peptide divided by the specific OD450 or cpm of NHS sample binding to peptide, which value is less than 2)	++ (which value is greater than 3)	++ (which value is greater than 3)	++ (which value is greater than 3)	- (specific OD450 or cpm of sera sample binding to peptide divided by the specific OD450 or cpm of NHS sample binding to peptide, which value is less than 2)	- (specific OD450 or cpm of sera sample binding to peptide divided by the specific OD450 or cpm of NHS sample binding to peptide, which value is less than 2)	- (specific OD450 or cpm of sera sample binding to peptide divided by the specific OD450 or cpm of NHS sample binding to peptide, which value is less than 2)	++ (which value is greater than 3)	- (specific OD450 or cpm of sera sample binding to peptide divided by the specific OD450 or cpm of NHS sample binding to peptide, which value is less than 2)	++ (which value is greater than 3)	- (specific OD450 or cpm of sera sample binding to peptide divided by the specific OD450 or cpm of NHS sample binding to peptide, which value is less than 2)	Binding of maternal HIV+ serum to peptide (sera/NHS ratio) [3, 19]: - (specific OD450 or cpm of sera sample binding to peptide divided by the specific OD450 or cpm of NHS sample binding to peptide, which value is less than 2); Binding of maternal HIV+ serum to peptide (sera/NHS ratio) [3, 20]: ++ (which value is greater than 3); Binding of maternal HIV+ serum to peptide (sera/NHS ratio) [3, 21]: ++ (which value is greater than 3); Binding of maternal HIV+ serum to peptide (sera/NHS ratio) [3, 22]: - (specific OD450 or cpm of sera sample binding to peptide divided by the specific OD450 or cpm of NHS sample binding to peptide, which value is less than 2); Binding of maternal HIV+ serum to peptide (sera/NHS ratio) [3, 23]: - (specific OD450 or cpm of sera sample binding to peptide divided by the specific OD450 or cpm of NHS sample binding to peptide, which value is less than 2); Percent of the maternal serum samples that bound to the peptide [3]: 45%

Source: patent US5556744A, “Methods and compositions for diagnosing and treating certain HIV infected patients” (The Trustees of the University of Pennsylvania, priority 1994, dated 1996)
